pIC50: −log10 of the molar value.
Molecular target: Integrase (Human immunodeficiency virus 1, UniProt Q7ZJM1)
Assay: ChEBML_90573
Text: Inhibitory activity against HIV-1 integrase

Sequence of Integrase (Q7ZJM1 whole entry): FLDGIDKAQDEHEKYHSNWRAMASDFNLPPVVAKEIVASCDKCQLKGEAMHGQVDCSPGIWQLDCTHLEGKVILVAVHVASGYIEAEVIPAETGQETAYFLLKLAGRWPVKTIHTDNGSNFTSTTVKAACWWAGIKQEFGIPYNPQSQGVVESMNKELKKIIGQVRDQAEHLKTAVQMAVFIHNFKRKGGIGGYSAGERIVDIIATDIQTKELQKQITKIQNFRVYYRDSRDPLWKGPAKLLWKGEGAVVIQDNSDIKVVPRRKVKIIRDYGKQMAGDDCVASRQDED

Work on `CCCCC(C)/C=C(\C)C(=O)O[C@@H]1CC[C@H](C(=O)O)[C@@]2(C)CC(=C(C)C=O)C(=O)C=C12` (stereo partly drawn) [(1S,4R,7S,8aR)-4-((E)-2,4-Dimethyl-oct-2-enoyloxy)-7-(1-formyl-vinyl)-8a-methyl-6-oxo-1,2,3,4,6,7,8,8a-octahydro-naphthalene-1-carboxylic acid] yielded a pIC50 of 5.52.

Reference: BindingDB's records for doi:10.1016/s0960-894x(99)00666-6 (Merck Research Laboratories, 2000)
